Experimental data taken from ChEMBL document CHEMBL1134447 (J Med Chem, 2001).

Assays:
physchem [1] = details: buffer
physchem [2] = details: octanol/water, pH 7.4

SMILES | solubility (physchem [1]) [µM] | logD (physchem [2])
O=C(OCc1cc2c(cc1Cl)OCO2)N1CCC(n2c(O)nc3ccccc32)CC1 | < 10 | 4.2
O=C(OC1CCc2ccccc21)N1CCC2(CC1)C(=O)NCN2c1ccccc1 (stereo not drawn) | < 10 | > 4
O=C(OCc1cccc(Oc2ccccc2)c1)N1CCC2(CC1)C(=O)NCN2c1ccccc1 | < 10 | > 4
O=C(NCCCn1c(=O)[nH]c2ccccc21)OCc1cc2c(cc1Cl)OCO2 | < 10 | > 4
